Source: ChEMBL document CHEMBL3286212, “Synthesis of isoquinolinone-based tricycles as novel poly(ADP-ribose) polymerase-1 (PARP-1) inhibitors” (Bioorg Med Chem Lett, 2014)

Assays:
[1] = target: Poly [ADP-ribose] polymerase 1 (Homo sapiens, UniProt P09874); experiment: Inhibition of human recombinant PARP-1 after 1 hr by ELISA
[2] = Cytotoxicity against Chinese hamster V79 cells by sulforhodamine B assay; assay type: cell-based, Cricetulus griseus
[3] = Cytotoxicity against BRCA2-deficient Chinese hamster VC8 cells by sulforhodamine B assay; assay type: functional; details: Cricetulus griseus, V-C8
[4] = Cytotoxicity against BRCA1-deficient human MDA-MB-436 cells by sulforhodamine B assay; assay type: functional

Poly [ADP-ribose] polymerase 1, sequence (P09874 whole entry): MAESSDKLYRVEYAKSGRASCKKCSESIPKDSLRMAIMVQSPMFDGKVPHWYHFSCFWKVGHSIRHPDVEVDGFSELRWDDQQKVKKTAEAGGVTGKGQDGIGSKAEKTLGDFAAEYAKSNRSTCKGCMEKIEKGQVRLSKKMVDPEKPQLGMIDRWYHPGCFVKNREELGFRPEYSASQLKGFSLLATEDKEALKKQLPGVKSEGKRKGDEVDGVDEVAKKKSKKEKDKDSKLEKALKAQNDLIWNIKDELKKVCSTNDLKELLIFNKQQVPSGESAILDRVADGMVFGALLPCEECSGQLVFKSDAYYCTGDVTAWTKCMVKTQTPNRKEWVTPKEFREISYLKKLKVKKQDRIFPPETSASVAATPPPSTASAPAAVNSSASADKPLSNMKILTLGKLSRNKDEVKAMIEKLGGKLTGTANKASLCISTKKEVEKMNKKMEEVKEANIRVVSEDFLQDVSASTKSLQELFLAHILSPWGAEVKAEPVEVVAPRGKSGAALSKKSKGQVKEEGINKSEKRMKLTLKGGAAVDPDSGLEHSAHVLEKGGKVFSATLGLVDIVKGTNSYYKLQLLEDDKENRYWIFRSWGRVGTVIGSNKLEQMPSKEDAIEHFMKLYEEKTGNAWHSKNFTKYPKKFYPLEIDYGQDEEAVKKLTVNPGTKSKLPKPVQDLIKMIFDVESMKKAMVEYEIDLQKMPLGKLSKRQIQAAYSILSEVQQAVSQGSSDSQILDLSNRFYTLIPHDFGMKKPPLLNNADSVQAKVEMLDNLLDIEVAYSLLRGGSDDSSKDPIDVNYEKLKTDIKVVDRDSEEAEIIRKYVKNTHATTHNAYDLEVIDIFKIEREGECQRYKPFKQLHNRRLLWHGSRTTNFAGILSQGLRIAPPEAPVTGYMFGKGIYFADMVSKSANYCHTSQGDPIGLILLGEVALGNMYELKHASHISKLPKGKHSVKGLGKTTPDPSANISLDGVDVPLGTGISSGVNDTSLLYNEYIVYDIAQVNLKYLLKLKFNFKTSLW

Cn1c(C(=O)N2CCCNCC2)cc2[nH]c(=O)c3ccccc3c21
IC50 [1]: 100 nM
CC50 [2]: > 10000 nM
CC50 [3]: > 10000 nM
CC50 [4]: 1190 nM

CN(C)CCCNC(=O)c1cc2[nH]c(=O)c3ccccc3c2n1C
IC50 [1]: 300 nM

Cc1c(C(=O)N2CC=C(c3ccc(F)cc3)CC2)sc2c1[nH]c(=O)c1ccccc12
IC50 [1]: 133 nM

CN1CCN(C(=O)c2cc3c(n2C)-c2ccccc2C(=O)NC3)CC1
IC50 [1]: > 10000 nM

Cn1c(C(=O)N2CCN(Cc3ccc([N+](=O)[O-])cc3)CC2)cc2[nH]c(=O)c3ccccc3c21
IC50 [1]: > 10000 nM

Cn1c(C(=O)N2CCN(Cc3ccccc3)CC2)cc2[nH]c(=O)c3ccccc3c21
IC50 [1]: 860 nM

Cn1c(C(=O)NCCN2CCCC2)cc2c1-c1ccccc1C(=O)NC2
IC50 [1]: 8170 nM

Cn1c(C(=O)NCCCN2CCOCC2)cc2[nH]c(=O)c3ccccc3c21
IC50 [1]: 100 nM

Cc1c(C(=O)NCCN2CCN(C)CC2)sc2c1[nH]c(=O)c1ccccc12
IC50 [1]: 284 nM

CCN1CCN(C(=O)c2sc3c([nH]c(=O)c4ccccc43)c2C)CC1
IC50 [1]: 79 nM
CC50 [2]: > 10000 nM
CC50 [3]: > 10000 nM
CC50 [4]: 3480 nM

O=C(c1cc(Cc2n[nH]c(=O)c3ccccc23)ccc1F)N1CCN(C(=O)C2CC2)CC1 [OLAPARIB]
CC50 [2]: 8980 nM
CC50 [3]: 468 nM
CC50 [4]: 16.9 nM

CN(C)CCNC(=O)c1cc2[nH]c(=O)c3ccccc3c2n1C
IC50 [1]: 1100 nM

CN(C)C1CCN(C(=O)c2cc3c(n2C)-c2ccccc2C(=O)NC3)CC1
IC50 [1]: 6430 nM

Cc1c(C(=O)NCCN2CCCC2)sc2c1[nH]c(=O)c1ccccc12
IC50 [1]: 248 nM

Cc1c(C(=O)N2CCN(C(C)C)CC2)sc2c1[nH]c(=O)c1ccccc12
IC50 [1]: 86 nM
CC50 [2]: > 10000 nM
CC50 [3]: > 10000 nM
CC50 [4]: > 10000 nM

Cn1c(C(=O)N2CC=C(c3ccc(F)cc3)CC2)cc2c1-c1ccccc1C(=O)NC2
IC50 [1]: 1670 nM

CC(C)N1CCN(C(=O)c2cc3[nH]c(=O)c4ccccc4c3n2C)CC1
IC50 [1]: 830 nM

Cc1c(C(=O)N2CCC(N(C)C)CC2)sc2c1[nH]c(=O)c1ccccc12
IC50 [1]: 29 nM
CC50 [2]: > 10000 nM
CC50 [3]: > 10000 nM
CC50 [4]: > 10000 nM

CN1CCCN(C(=O)c2cc3c(n2C)-c2ccccc2C(=O)NC3)CC1
IC50 [1]: 10000 nM

Cn1c(C(=O)N2CCCNCC2)c(Cl)c2[nH]c(=O)c3ccccc3c21
IC50 [1]: 100 nM

CN1CCN(C(=O)c2cc3[nH]c(=O)c4ccccc4c3n2C)CC1
IC50 [1]: 119 nM

Cc1c(C(=O)N2CCN(C)CC2)sc2c1[nH]c(=O)c1ccccc12
IC50 [1]: 231 nM

Cn1c(C(=O)N2CCCNCC2)c(Br)c2[nH]c(=O)c3ccccc3c21
IC50 [1]: 100 nM

CC(C)S(=O)(=O)N1CCN(C(=O)c2cc3[nH]c(=O)c4ccccc4c3n2C)CC1
IC50 [1]: 600 nM

CN1CCCN(C(=O)c2cc3[nH]c(=O)c4ccccc4c3n2C)CC1
IC50 [1]: 200 nM

COc1cccc(CN2CCN(C(=O)c3cc4[nH]c(=O)c5ccccc5c4n3C)CC2)c1
IC50 [1]: 400 nM

Cc1c(C(=O)NCCN2CCOCC2)sc2c1[nH]c(=O)c1ccccc12
IC50 [1]: 83 nM

Cn1c(C(=O)N2CCNCC2)cc2[nH]c(=O)c3ccccc3c21
IC50 [1]: 44 nM
